Test results as given in patent publication US8362201B2 (priority 2000, dated 2013).

Key:
[1] = test system: whole-cell calcium channel currents in isolated cockroach neurons; conditions: 0.1 µM; cited from earlier work
mouse sensory neuron ICa = format: cell-based
[2] = test system: bee brain calcium channel (ICa); format: cell-based, Apis mellifera
[3] = test system: insect versus vertebrate calcium channels

omega-atracotoxin-Hv1a [ω-ACTX-Hv1a]
inhibition of whole-cell calcium channel currents [1]: 25±10%

ω-agatoxin-IVA (KKKCIAKDYGRCKWGGTPCCRGRGCICSIMGTNCECKPRLIMEGLGLA)
maximum ICa inhibition (mouse sensory neuron ICa): ~40% | EC50 (mouse sensory neuron ICa; read-out: EC50 for inhibition of a component of ICa): ~20 nM | concentration for maximum inhibition of ICa [2]: > 100 nM | EC50 ([2]; read-out: EC50 for inhibition of ICa): 10 nM | preference for insect versus vertebrate calcium channels [3]: 2 fold
